Data set [1] is described as follows: Bulk density, ASTM D6683-19. The data set is classed as physicochemical.
For data set [2] the following is noted: patients; cited from earlier work.
Data set [3] has as its system chick embryo yolk sac membrane (YSM) blood vessels. Nature of the data set: In ovo chick embryo yolk sac membrane (YSM) angiogenesis model. The format is in vivo, white Leghorn breed of fowls. To be noted: all tested concentrations, 24 hr after treatment, in comparison with control.

Substance Arsenic tri oxide [ATO] had a bulk density in data set [1] of 1.3336 g/mL. For the same substance, in data set [2], the dyspepsia is listed as 24%, the “elevation in liver enzymes” value is on record as 42%, the headache was 29% and the herpes zoster reactivation is reported as 13%. In addition, in data set [2], the menorrhagia is recorded as 4% and the rash was 11%.

Take “Avastin: monoclonal antibody targeted against VEGF, approved by FDA for therapeutic intervention in cancer”: in data set [3], the “number of quaternary blood vessels” value is on record as “significant decrease”.

The record behind these values is patent US20230149452A1, “STRUCTURALLY DEFINED, BETTER TOLERATED, ORALLY ADMINSTERED, PROCESSED ARSENOLITE, A PROCESS FOR ITS PREPARATION, A PHARMACEUTICAL COMPOSITION AND USES THEREOF” (priority 2020, published 2023).
